Assay: Fluorescence Based Assay: The details of the KEAP1 KELCH ThermoFluor® Assay Construct are as follows: Kelch domain of human KEAP 1 (321-624 aa) was used in the assay. The protein was expressed in E. coli with 6His tag that was cleaved prior to receipt for use.ThermoFluor® experiments were carried out using instruments owned by Janssen Research and Discovery, L.L.C. through its acquisition of 3-Dimensional Pharmaceuticals, Inc. 1,8-ANS (Invitrogen) was used as a fluorescent dye. Protein (KEAP Kelch) and compound solutions were dispensed into black 384-well polypropylene PCR microplates (Abgene) and overlayed with silicone oil (1 μL, Fluka, type DC 200) to prevent evaporation.Reference wells contained KEAP Kelch without compounds, and the assay conditions were as follows: 1.1 μM (0.037mg/mL) KEAP Kelch, 80 μM 1,8-ANS, 25 mM PIPES, pH 7.0, 100 mM NaCl, 0.002% Tween-20.

| SMILES | Kd |
| --- | --- |
| CC[C@@H]1CN(Cc2cc(C(CC(=O)O)c3ccn4c(C(F)F)nnc4c3C)ccc2C)S(=O)(=O)c2cccnc2O1 (stereo partly drawn) | < 1 nM |
| Cc1ccc([C@H](CC(=O)O)c2ccn3c(C(F)(F)F)nnc3c2C)nc1CN1C[C@@H]2CCCCN2c2ncccc2S1(=O)=O | < 1 nM |
| Cc1ccc([C@H](CC(=O)O)c2ccn3c(C(F)F)nnc3c2C)cc1CN1CC2(COC2)Oc2ncccc2S1(=O)=O | < 1 nM |
| Cc1cc2cc([C@H](CC(=O)O)c3ccc(C)c(CN4C[C@@H]5CCCCN5c5ncccc5S4(=O)=O)c3)n(C)c2nn1 | < 1 nM |
| Cc1ccc(C(CC(=O)O)c2ccn3c(C(F)(F)F)nnc3c2C)nc1CN1CC2(CC2)Oc2ncccc2S1(=O)=O (stereo not drawn) | < 1 nM |
| Cc1ccc([C@@H](CC(=O)O)c2ccn3c(C(F)F)nnc3c2C)cc1CN1CC2(COC2)Oc2ncccc2S1(=O)=O | < 1 nM |
| Cc1ccc([C@@H](CC(=O)O)c2ccc3c(nnn3CC3CC3)c2C)cc1CN1C[C@H]2CCCN2c2ncccc2S1(=O)=O | < 1 nM |
| Cc1ccc(C(CC(=O)O)c2ccn3c(C(F)F)nnc3c2C)cc1CN1C[C@]2(C)CCCN2c2ncccc2S1(=O)=O (stereo partly drawn) | < 1 nM |
| CC[C@@H]1CN(Cc2cc([C@@H](CC(=O)O)c3ccn4c(C(F)F)nnc4c3C)ccc2C)S(=O)(=O)c2cccnc2O1 | < 1 nM |
| Cc1cnc2c(c1)S(=O)(=O)N(Cc1nc([C@H](CC(=O)O)c3ccn4c(C(F)(F)F)nnc4c3C)ccc1C)C[C@H]1CCCCN21 | < 1 nM |
| Cc1ccc([C@H](CC(=O)O)c2cc(OC3CC3)c3c(c2)nnn3C)cc1CN1C[C@H]2CCCCN2c2ncccc2S1(=O)=O | < 1 nM |
| Cc1ccc([C@H](CC(=O)O)c2ccc3c(nnn3C3CC3)c2C)cc1CN1C[C@@H]2CCCCN2c2ncccc2S1(=O)=O | < 1 nM |
| Cc1cnc2c(c1)S(=O)(=O)N(Cc1nc([C@@H](CC(=O)O)c3ccn4c(C(F)(F)F)nnc4c3C)ccc1C)C[C@H]1CCCCN21 | < 1 nM |
| Cc1ccc(C(CC(=O)O)c2cc(OC3CC3)c3c(c2)nnn3C)cc1CN1C[C@H]2CCCCN2c2ncccc2S1(=O)=O (stereo partly drawn) | < 1 nM |
| Cc1cnc2c(c1)S(=O)(=O)N(Cc1cc([C@@H](c3ccc4c(nnn4C4CC4)c3C)C(C)(C)C(=O)O)cnc1C)CC1(CC1)O2 | < 1 nM |
| Cc1ccc([C@@H](c2ccn3c(C(F)(F)F)nnc3c2C)C(C)(C)C(=O)O)cc1CN1C[C@@]2(CCOC2)Oc2ncccc2S1(=O)=O | < 1 nM |
| Cc1cc2cc(C(CC(=O)O)c3ccc(C)c(CN4C[C@@H]5CCCCN5c5ncccc5S4(=O)=O)c3)n(C)c2nn1 (stereo partly drawn) | < 1 nM |
| Cc1ccc([C@H](CC(=O)O)c2ccn3c(C(F)F)nnc3c2C)cc1CN1C[C@H]2CCCN2c2ncccc2S1(=O)=O | < 1 nM |
| Cc1ccc([C@@H](CC(=O)O)c2ccn3c(C(F)(F)F)nnc3c2C)cc1CN1C[C@H]2CCC(F)(F)CN2c2ncccc2S1(=O)=O | < 1 nM |
| Cc1ccc([C@H](CC(=O)O)c2ccn3c(C(F)(F)F)nnc3c2C)cc1CN1C[C@@H]2CCC(F)(F)CN2c2ncccc2S1(=O)=O | < 1 nM |
| Cc1ccc([C@@H](CC(=O)O)c2ccn3c(C(F)(F)F)nnc3c2C)cc1CN1C[C@H]2CCCN2c2ncccc2S1(=O)=O | < 1 nM |
| Cc1ccc(C(CC(=O)O)c2ccn3c(C(F)F)nnc3c2C)cc1CN1C[C@@H]2CCCCN2c2ncccc2S1(=O)=O (stereo partly drawn) | < 1 nM |
| Cc1ccc([C@H](c2ccn3c(C(F)(F)F)nnc3c2C)C(C)(C)C(=O)O)cc1CN1C[C@@H]2CCCCN2c2ncc(C#N)cc2S1(=O)=O | < 1 nM |

| SMILES | Kd |
| --- | --- |
| Cc1ccc([C@H](c2ccn3c(C(F)(F)F)nnc3c2C)C(C)(C)C(=O)O)cc1CN1C[C@]2(CCOC2)Oc2ncccc2S1(=O)=O | < 1 nM |
| Cc1cnc2c(c1)S(=O)(=O)N(Cc1cc([C@@H](c3ccn4c(C(F)(F)F)nnc4c3C)C(C)(C)C(=O)O)ccc1C)C[C@]1(CCOC1)O2 | < 1 nM |
| Cc1ccc(C(CC(=O)O)c2ccn3c(C(F)F)nnc3c2C)cc1CN1CC2(CC2)Oc2ncccc2S1(=O)=O (stereo not drawn) | < 1 nM |
| Cc1ccc([C@H](CC(=O)O)c2ccn3c(C(F)(F)F)nnc3c2C)nc1CN1CC2(CC2)Oc2ncccc2S1(=O)=O | < 1 nM |
| Cc1ccc([C@H](CC(=O)O)c2ccn3c(C(F)F)nnc3c2C)cc1CN1C[C@]2(C)CCCN2c2ncccc2S1(=O)=O | < 1 nM |
| Cc1ccc([C@@H](c2ccc3c(nnn3CC3CC3)c2C)C(C)(C)C(=O)O)cc1CN1CC2(CCOCC2)Oc2ncccc2S1(=O)=O | < 1 nM |
| Cc1cc2cc([C@H](CC(=O)O)c3ccc(C)c(CN4C[C@H]5CCCCN5c5ncccc5S4(=O)=O)c3)n(C)c2nn1 | < 1 nM |
| Cc1cnc2c(c1)S(=O)(=O)N(Cc1cc([C@@H](c3ccn4c(C5CC5)nnc4c3C)C(C)(C)C(=O)O)ccc1C)CC1(CC1)O2 | < 1 nM |
| Cc1cnc2c(c1)S(=O)(=O)N(Cc1cc([C@H](c3ccn4c(C(F)(F)F)nnc4c3C)C(C)(C)C(=O)O)ccc1C)C[C@@]1(CCOC1)O2 | < 1 nM |
| Cc1ccc([C@H](c2ccn3c(C(F)(F)F)nnc3c2C)C(C)(C)C(=O)O)cc1CN1CC(C)(C)Oc2ncccc2S1(=O)=O | < 1 nM |
| Cc1cc2cc([C@H](CC(=O)O)c3ccc(C)c(CN4C[C@H]5CCCN5c5ncccc5S4(=O)=O)c3)n(C)c2nn1 | < 1 nM |
| CCn1nnc2c(C)c(C(CC(=O)O)c3ccc(C)c(CN4CC5(CCOCC5)Oc5ccc(F)cc5S4(=O)=O)n3)ccc21 (stereo not drawn) | < 1 nM |
| Cc1ccc([C@H](CC(=O)O)c2ccc3c(nnn3CC3CC3)c2C)cc1CN1C[C@H]2CCCN2c2ncccc2S1(=O)=O | < 1 nM |
| Cc1ccc(C(CC(=O)O)c2ccc3c(nnn3C3CC3)c2C)cc1CN1C[C@@H]2CCCCN2c2ncccc2S1(=O)=O (stereo partly drawn) | < 1 nM |
| Cc1ccc(C(CC(=O)O)c2ccn3c(C(F)F)nnc3c2C)cc1CN1CC2(COC2)Oc2ncccc2S1(=O)=O (stereo not drawn) | < 1 nM |
| Cc1cnc2c(c1)S(=O)(=O)N(Cc1nc(C(CC(=O)O)c3ccn4c(C(F)(F)F)nnc4c3C)ccc1C)C[C@@H]1CCCCN21 (stereo partly drawn) | < 1 nM |
| Cc1ccc([C@@H](CC(=O)O)c2ccn3c(C(F)(F)F)nnc3c2C)nc1CN1C[C@@H]2CCCCN2c2ncccc2S1(=O)=O | < 1 nM |
| Cc1ccc([C@@H](CC(=O)O)c2ccn3c(C(F)(F)F)nnc3c2C)nc1CN1CC2(CC2)Oc2ncccc2S1(=O)=O | < 1 nM |
| Cc1ccc(C(CC(=O)O)c2ccn3c(C(F)(F)F)nnc3c2C)nc1CN1C[C@@H]2CCCCN2c2ncccc2S1(=O)=O (stereo partly drawn) | < 1 nM |
| Cc1ccc([C@@H](CC(=O)O)c2ccn3c(C(F)(F)F)nnc3c2C)cc1CN1C[C@@H]2CCC(F)(F)CN2c2ncccc2S1(=O)=O | < 1 nM |
| CCn1nnc2c(C)c([C@H](CC(=O)O)c3ccc(C)c(CN4CC5(CCOCC5)Oc5ccc(F)cc5S4(=O)=O)n3)ccc21 | < 1 nM |
| Cc1ccc([C@H](CC(=O)O)c2ccn3c(C(F)(F)F)nnc3c2C)cc1CN1C[C@H]2CCCN2c2ncccc2S1(=O)=O | < 1 nM |
| Cc1ccc([C@@H](c2ccn3c(C(F)(F)F)nnc3c2C)C(C)(C)C(=O)O)cc1CN1C[C@H]2CCCCN2c2ncc(C#N)cc2S1(=O)=O | < 1 nM |

| SMILES | Kd |
| --- | --- |
| Cc1ccc(C(CC(=O)O)c2ccn3c(C(F)(F)F)nnc3c2C)nc1CN1CC2(COC2)Oc2ncccc2S1(=O)=O (stereo not drawn) | < 1 nM |
| Cc1cnc2c(c1)S(=O)(=O)N(Cc1nc([C@H](CC(=O)O)c3ccn4c(C(F)(F)F)nnc4c3C)ccc1C)C[C@@H]1CCCCN21 | < 1 nM |
| Cc1ccc(C(CC(=O)O)c2ccn3c(C(F)(F)F)nnc3c2C)cc1CN1CC2CCC(F)(F)CN2c2ncccc2S1(=O)=O (stereo not drawn) | < 1 nM |
| Cc1ccc([C@@H](c2ccn3c(C(F)(F)F)nnc3c2C)C(C)(C)C(=O)O)cc1CN1CC2(CCOCC2)Oc2ncccc2S1(=O)=O | < 1 nM |
| Cc1ccc(C(CC(=O)O)c2ccc3c(nnn3CC3CC3)c2C)cc1CN1C[C@H]2CCCN2c2ncccc2S1(=O)=O (stereo partly drawn) | < 1 nM |
| Cc1ccc([C@@H](CC(=O)O)c2cc(OC3CC3)c3c(c2)nnn3C)cc1CN1C[C@H]2CCCCN2c2ncccc2S1(=O)=O | < 1 nM |
| Cc1ccc([C@@H](CC(=O)O)c2ccn3c(C(F)F)nnc3c2C)cc1CN1C[C@H]2CCCN2c2ncccc2S1(=O)=O | < 1 nM |
| Cc1cnc2c(c1)S(=O)(=O)N(Cc1cc(C(c3ccc4c(nnn4C4CC4)c3C)C(C)(C)C(=O)O)cnc1C)CC1(CC1)O2 (stereo not drawn) | < 1 nM |
| Cc1ccc([C@H](CC(=O)O)c2ccn3c(C(F)F)nnc3c2C)cc1CN1C[C@@H]2COCCN2c2ncccc2S1(=O)=O | < 1 nM |
| Cc1ccc(C(CC(=O)O)c2ccn3c(C(F)(F)F)nnc3c2C)nc1CN1CC2(COC2)Oc2ccccc2S1(=O)=O (stereo not drawn) | < 1 nM |
| Cc1ccc(C(CC(=O)O)c2ccn3c(C(F)F)nnc3c2C)cc1CN1C[C@H]2CCCN2c2ncccc2S1(=O)=O (stereo partly drawn) | < 1 nM |
| Cc1cnc2c(c1)S(=O)(=O)N(Cc1nc(C(CC(=O)O)c3ccn4c(C(F)(F)F)nnc4c3C)ccc1C)C[C@H]1CCCCN21 (stereo partly drawn) | < 1 nM |
| Cc1ccc([C@H](c2ccn3c(C(F)(F)F)nnc3c2C)C(C)(C)C(=O)O)cc1CN1CC2(CC2)Oc2nc(N[C@@H](C)CN3CCCCC3)c(C)cc2S1(=O)=O | < 1 nM |
| Cc1ccc([C@H](CC(=O)O)c2ccn3c(C(F)(F)F)nnc3c2C)cc1CN1CC2(CCOCC2)Oc2ncccc2S1(=O)=O | < 1 nM |
| Cc1ccc([C@@H](c2ccn3c(C(F)(F)F)nnc3c2C)C(C)(C)C(=O)O)cc1CN1C[C@@H]2CCCCN2c2ncc(C#N)cc2S1(=O)=O | < 1 nM |
| Cc1ccc([C@@H](CC(=O)O)c2ccn3c(C(F)F)nnc3c2C)cc1CN1C[C@@H]2CCCCN2c2ncccc2S1(=O)=O | < 1 nM |
| Cc1ccc([C@H](CC(=O)O)c2ccn3c(C(F)F)nnc3c2C)cc1CN1CC2(CC2)Oc2ncccc2S1(=O)=O | < 1 nM |
| Cc1ccc([C@@H](CC(=O)O)c2ccn3c(C(F)(F)F)nnc3c2C)nc1CN1CC2(COC2)Oc2ccccc2S1(=O)=O | < 1 nM |
| Cc1ccc([C@@H](CC(=O)O)c2ccn3c(C(F)F)nnc3c2C)cc1CN1CC2(CC2)Oc2ncccc2S1(=O)=O | < 1 nM |
| Cc1cnc2c(c1)S(=O)(=O)N(Cc1cc(C(c3ccn4c(C5CC5)nnc4c3C)C(C)(C)C(=O)O)ccc1C)CC1(CC1)O2 (stereo not drawn) | < 1 nM |
| Cc1cc2cc(C(CC(=O)O)c3ccc(C)c(CN4C[C@H]5CCCCN5c5ncccc5S4(=O)=O)c3)n(C)c2nn1 (stereo partly drawn) | < 1 nM |
| Cc1ccc([C@H](CC(=O)O)c2ccn3c(C(F)F)nnc3c2C)cc1CN1CC2(COC2)Oc2ccccc2S1(=O)=O | < 1 nM |
